# Test results taken from patent US20250228864A1, “THERAPIES FOR THE TREATMENT OF INFLAMMATORY BOWEL DISEASE” (Gilead Sciences, Inc., priority 2023, published 2025).
# Target: T1, α4β7 receptors on β7+CD4+CD45RO+ memory T cells (Homo sapiens, UniProt P13612+P26010)
# T1 construct: endogenous in cells
# T1 sequence (P13612 34-1032): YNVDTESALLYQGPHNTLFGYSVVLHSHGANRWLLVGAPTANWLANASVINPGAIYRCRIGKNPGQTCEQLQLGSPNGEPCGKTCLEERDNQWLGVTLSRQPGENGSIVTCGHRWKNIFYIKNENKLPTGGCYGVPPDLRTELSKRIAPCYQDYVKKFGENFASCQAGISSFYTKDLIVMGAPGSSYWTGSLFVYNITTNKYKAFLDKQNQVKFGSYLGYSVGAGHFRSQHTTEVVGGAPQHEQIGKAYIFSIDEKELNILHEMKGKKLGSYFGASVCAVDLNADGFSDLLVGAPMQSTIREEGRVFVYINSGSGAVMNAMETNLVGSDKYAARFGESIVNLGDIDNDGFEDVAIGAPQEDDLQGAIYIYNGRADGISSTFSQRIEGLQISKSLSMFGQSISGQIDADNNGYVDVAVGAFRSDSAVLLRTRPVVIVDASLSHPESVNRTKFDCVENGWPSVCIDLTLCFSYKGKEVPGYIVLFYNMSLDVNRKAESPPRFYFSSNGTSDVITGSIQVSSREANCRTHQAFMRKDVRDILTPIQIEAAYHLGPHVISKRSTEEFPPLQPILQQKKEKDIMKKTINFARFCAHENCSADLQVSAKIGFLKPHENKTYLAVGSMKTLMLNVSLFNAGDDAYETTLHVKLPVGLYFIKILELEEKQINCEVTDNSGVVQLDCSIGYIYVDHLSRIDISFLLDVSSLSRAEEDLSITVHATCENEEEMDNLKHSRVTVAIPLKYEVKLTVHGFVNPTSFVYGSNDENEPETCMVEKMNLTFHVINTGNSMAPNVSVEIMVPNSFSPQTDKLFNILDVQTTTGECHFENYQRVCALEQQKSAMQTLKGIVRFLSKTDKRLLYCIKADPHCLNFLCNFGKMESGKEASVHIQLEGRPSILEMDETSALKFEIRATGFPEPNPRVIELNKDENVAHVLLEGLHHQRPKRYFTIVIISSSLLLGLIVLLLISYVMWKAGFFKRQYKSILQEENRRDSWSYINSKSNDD
# T1 sequence (P26010 20-798): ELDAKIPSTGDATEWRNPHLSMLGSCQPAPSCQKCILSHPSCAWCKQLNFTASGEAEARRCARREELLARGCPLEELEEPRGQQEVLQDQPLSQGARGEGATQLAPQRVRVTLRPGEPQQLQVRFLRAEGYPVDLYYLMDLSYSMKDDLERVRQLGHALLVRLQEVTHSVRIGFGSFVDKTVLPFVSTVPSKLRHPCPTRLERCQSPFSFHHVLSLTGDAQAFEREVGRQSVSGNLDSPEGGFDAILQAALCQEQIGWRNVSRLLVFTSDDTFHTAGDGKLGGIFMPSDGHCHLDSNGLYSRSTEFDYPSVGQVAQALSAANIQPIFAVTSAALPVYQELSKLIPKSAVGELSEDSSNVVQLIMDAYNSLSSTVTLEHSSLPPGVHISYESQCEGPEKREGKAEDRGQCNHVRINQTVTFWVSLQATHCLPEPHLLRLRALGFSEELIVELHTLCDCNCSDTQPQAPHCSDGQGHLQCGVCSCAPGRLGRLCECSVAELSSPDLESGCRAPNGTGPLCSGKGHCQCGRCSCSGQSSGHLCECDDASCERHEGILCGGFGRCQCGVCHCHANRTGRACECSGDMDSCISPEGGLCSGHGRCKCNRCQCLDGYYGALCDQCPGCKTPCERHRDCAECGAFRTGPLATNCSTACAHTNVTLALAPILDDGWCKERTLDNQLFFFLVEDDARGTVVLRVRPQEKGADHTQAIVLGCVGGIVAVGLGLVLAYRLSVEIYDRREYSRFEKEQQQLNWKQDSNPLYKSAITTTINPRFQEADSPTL
# Experiment: Whole blood α4β7 receptor occupancy (RO) assay by flow cytometry in SAD and MAD cohorts
# Assay type: in vivo
# Details: for time post last dose (Day 14) until which α4β7 % RO≥95% was sustained: 100% of participants
# Procedure: Formula (III) is a prodrug of Formula (I) and undergoes a rapid conversion to its active metabolite (Formula (I)) when administered to a human. The pharmacodynamics (PD) of the active metabolite of Formula (III) were analyzed in healthy volunteers by measuring the metabolites receptor occupancy (RO) on α4β7 receptors in whole blood to inform Formula (III) dose selection and schedule.
# A whole blood RO assay was developed and fit-for-purpose-validated that measures free α4β7 receptors on […] memory T cells in fresh whole blood by flow cytometry. The β7+CD4+CD45RO+ memory T-cells were identified using a staining panel comprised of fluorescently labelled anti-CD3, -CD4, -CD8, -CD45RO, and -β7 antibodies (Biolegend) (Table 14) as soon as possible after blood collection. Biotinylated human MAdCAM-1 protein, the natural ligand for α4β7, is mixed with streptavidin PE dextramer (Immudex) (MDX) and added to the whole blood in the presence of the divalent cation manganese (as MnCl2). MDX and the metabolite compete for binding to the α4β7 integrin receptor. Specimen data are acquired immediately on a BD LSRFortessa X-20 Cell Analyzer flow cytometer using a α4β7 RO cell acquisition template and application settings. The gating strategy is as follows: lymphocytes are gated based on size (FSC-A) and complexity (SSC-A). Doublets are removed using FSC-A/FSC-H. CD3+ lymphocytes are further differentiated into CD4+ and CD8+ T cells. CD4+CD45RO+ positive T cells are gated on β7 integrin and MDX positivity. The fluorescent intensities of PE-MDX β7+CD4+CD45RO+ memory T cells in pre-dose and post-dose whole blood are used to calculate the % RO post-dose. The lower level of quantification (LLOQ) of the assay was estimated to be ˜40% for a single measurement; similarly, the a4b7 RO assay was fit-for purpose validated to precisely quantify % RO up to 95% RO. Actual measured values <40% RO and ≥95% RO are shown but represent best estimates.
# Whole blood was collected pre- and post-Formula (III) or placebo to match (PTM) administration and percent α4β7 RO was calculated for all postbaseline time points in the SAD and MAD cohorts of the study. α4β7% RO was evaluated in all participants in Part A (SAD, Formula (III) 20 mg, 60 mg, 200 mg, 500 mg, and 1000 mg administered in liquid filled capsules under fasting conditions), and in Part B (MAD, Formula (III) 20 mg, 80 mg, 200 mg, 500 mg in liquid filled capsules under non-fasting conditions and Formula (III) 200 mg in tablet formulation under fasting conditions). In total, 2,506 samples collected at 35 different time-points from 109 unique participants were analyzed for α4β7% RO.
smiles,measurement,setting,value
"CCOC(=O)[C@H](Cc1ccc(-n2c(=O)c3ccncc3n(C)c2=O)c2ncccc12)NC(=O)c1c(C)cc(N2CCOC[C@@H]2C(F)(F)F)cc1F (atropisomer, axis not shown) [Formula (III)]",time until which full target engagement could possibly be achieved,"200 mg capsule nonfasting, after last dose",approximately 48 h
same,"α4β7 % RO 72 h postdose, average","200 mg capsule nonfasting, after last dose Day 14",90.1%
same,α4β7 % RO at 24 h post last dose on Day 14,"200 mg capsule nonfasting, all participants",≥ 95%
same,time post last dose (Day 14) until which α4β7 % RO≥95% was sustained,200 mg tablet fasting,72 h
same,time post last dose (Day 14) until which α4β7 % RO≥95% was sustained,500 mg capsule nonfasting,96 h
same,α4β7 % RO,"MAD 20 mg QD capsule nonfasting, Day 1, 3 h postdose",99.8%
same,α4β7 % RO,"MAD 20 mg QD capsule nonfasting, Day 1, 24 h postdose",37.8%
same,α4β7 % RO,"MAD 20 mg QD capsule nonfasting, Day 14, 24 h postdose",69.3%
same,α4β7 % RO,"MAD 20 mg QD capsule nonfasting, Day 14, predose",70.8%
same,change of α4β7 % RO post multiple once daily doses,"MAD 20 mg, Day 1 to Day 14",accumulation
same,α4β7 % RO,"MAD 80 mg QD capsule nonfasting, Day 1, 3 h postdose",99.9%
same,α4β7 % RO,"MAD 80 mg QD capsule nonfasting, Day 1, 24 h postdose",98.1%
same,α4β7 % RO,"MAD 80 mg QD capsule nonfasting, Day 14, 24 h postdose",99.4%
same,α4β7 % RO,"MAD 80 mg QD capsule nonfasting, Day 14, predose",99.3%
same,target engagement of α4β7 at 24 h on Day 1,MAD 80 mg nonfasting,achieved full target engagement
same,α4β7 % RO,"MAD 200 mg QD capsule nonfasting, Day 1, 24 h postdose",99.8%
same,α4β7 % RO,"MAD 200 mg QD capsule nonfasting, Day 14, 24 h postdose",99.8%
same,α4β7 % RO,"MAD 200 mg QD capsule nonfasting, Day 14, predose",99.9%
same,α4β7 % RO,"MAD 200 mg QD tablet fasting, Day 1, 3 h postdose",99.9%
same,α4β7 % RO,"MAD 200 mg QD tablet fasting, Day 1, 24 h postdose",99.8%
same,α4β7 % RO,"MAD 200 mg QD tablet fasting, Day 14, 24 h postdose",99.9%
same,α4β7 % RO,"MAD 200 mg QD tablet fasting, Day 14, predose",100%
same,α4β7 % RO,"MAD 500 mg QD capsule nonfasting, Day 1, 3 h postdose",99.9%
same,α4β7 % RO,"MAD 500 mg QD capsule nonfasting, Day 1, 24 h postdose",99.9%
same,α4β7 % RO,"MAD 500 mg QD capsule nonfasting, Day 14, 24 h postdose",99.9%
same,α4β7 % RO,"MAD 500 mg QD capsule nonfasting, Day 14, predose",99.9%
same,α4β7 % RO 24 h post the last once daily dose on Day 14,"MAD all doses ≥80 mg, in 100% of participants",≥ 95%
same,α4β7 % RO,"SAD 20 mg liquid-filled capsule fasting, Day 1, 3 h postdose",100%
same,α4β7 % RO,"SAD 20 mg liquid-filled capsule fasting, Day 1, 24 h postdose",35.9%
same,α4β7 % RO,"SAD 60 mg liquid-filled capsule fasting, Day 1, 3 h postdose",100%
same,α4β7 % RO,"SAD 60 mg liquid-filled capsule fasting, Day 1, 24 h postdose",63.4%
same,α4β7 % RO,"SAD 200 mg liquid-filled capsule fasting, Day 1, 3 h postdose",99.9%
same,α4β7 % RO,"SAD 200 mg liquid-filled capsule fasting, Day 1, 24 h postdose",99.7%
same,α4β7 % RO,"SAD 500 mg liquid-filled capsule fasting, Day 1, 3 h postdose",99.9%
same,α4β7 % RO,"SAD 500 mg liquid-filled capsule fasting, Day 1, 24 h postdose",99.8%
same,α4β7 % RO,"SAD 1000 mg liquid-filled capsule fasting, Day 1, 3 h postdose",99.6%
same,α4β7 % RO,"SAD 1000 mg liquid-filled capsule fasting, Day 1, 24 h postdose",99.8%
same,α4β7 % RO (full target engagement),"SAD fasting, 3 h postdose, all doses tested",≥ 95%
same,subjects with full target engagement (% RO≥95) sustained 24 h postdose,"SAD fasting, doses ≥200 mg",100%
